Measurements taken from paper PMC12491715 (Acta Pharmaceutica Sinica. B, 2025).

Legend:
hBChE = hBChE (Homo sapiens, UniProt P06276); assay: ChE IC50 determination, method of Ellman, hBChE; format: biochemical
Description: The inhibitory potencies of the compounds against the ChEs were determined using the method of Ellman following the procedure described previously. Briefly, compound stock solutions in DMSO were incubated with Ellman’s reagent and ChEs (final concentrations: 370 μmol/L Ellman’s reagent, approximately 1 nmol/L or 50 pmol/L hBChE or hAChE, respectively) in 0.1 mol/L sodium phosphate pH 8.0 for 5 min at 20 °C. For time-dependency measurements, the pre-incubation time was varied (1, 5, 15, 30 or 60 min). The reactions were started by the addition of the substrate (final concentration, 500 μmol/L butyrylthiocholine iodide or acetylthiocholine iodide for hBChE and hAChE, respectively). The final content of DMSO was always 1%. The increase in absorbance at 412 nm was monitored for 2 min using a 96-well microplate reader (Synergy HT, BioTek Instruments, VT, USA). The initial velocities in the presence (vi) and absence (v0) of the test compounds were calculated. The inhibitory potencies were expressed as the residual activities, according to Eq. (1):(1) RA = vi / v0
For IC50 determinations, at least seven different concentrations for each compound were used. The IC50 values were obtained by plotting the residual ChE activities against the applied inhibitor concentrations, with the experimental data fitted to a four-parameter logistic function (GraphPad Prism 9.4). Tacrine and donepezil were used as positive controls.

[1] = tested on: ICR mice icv-injected with Aβ1–42; assay: Y maze spontaneous alternation, mice model with icv-injection of Aβ1–42; format: in vivo; conditions: ip, once a day
Description: Mice model with icv-injection of Aβ1–42 The experiments were performed using ICR male mice (8–10 weeks old, weight 18–20 g), which were purchased from Shanghai Bikai Animal Breeding Factory (Shanghai, China). Animals were housed in cages (6 mice per cage) at a constant temperature of 25±2 °C, humidity of 55%±10% and a light/dark (12:12) cycle. The mice had unlimited access to food and water prior to the experiment. Specified conditions for the maintenance of mice were ensured throughout the experiments, including tree bedding (Yizheng Anlimao Biotechnology Co., Ltd., China) and lab feed (Zimao, China). For behavioural tests, mice were selected randomly, each group consisted of 6 mice. The experiments were performed between 9 am and 3 pm.
According to the literature procedure, recombinant human hexafluoroisopropanol-pretreated Aβ1–42 from Merck Millipore (Darmstadt, Germany) was dissolved in 1% DMSO, diluted with saline to the final concentration of 2 mg/mL, and incubated for 72 h to form oligomers. […]
Spontaneous alternation (Y maze) test was used to assess working memory in mice. […] The experimental data recorded the number of times the animal entered the three arms in a row. […] The behavior of mice in the Y maze was recorded by Xeye Aba and processed by GraphPad Prism 5.

tau = assay: Western blot of APP/PS1 mice brain homogenates, tau; format: in vivo, C57BL/6J-TgN(APP/PS1)ZLFILAS mice; conditions: 15-day treatment, 1 or 5 mg/kg ip

Sequence of hBChE (P06276 29-602): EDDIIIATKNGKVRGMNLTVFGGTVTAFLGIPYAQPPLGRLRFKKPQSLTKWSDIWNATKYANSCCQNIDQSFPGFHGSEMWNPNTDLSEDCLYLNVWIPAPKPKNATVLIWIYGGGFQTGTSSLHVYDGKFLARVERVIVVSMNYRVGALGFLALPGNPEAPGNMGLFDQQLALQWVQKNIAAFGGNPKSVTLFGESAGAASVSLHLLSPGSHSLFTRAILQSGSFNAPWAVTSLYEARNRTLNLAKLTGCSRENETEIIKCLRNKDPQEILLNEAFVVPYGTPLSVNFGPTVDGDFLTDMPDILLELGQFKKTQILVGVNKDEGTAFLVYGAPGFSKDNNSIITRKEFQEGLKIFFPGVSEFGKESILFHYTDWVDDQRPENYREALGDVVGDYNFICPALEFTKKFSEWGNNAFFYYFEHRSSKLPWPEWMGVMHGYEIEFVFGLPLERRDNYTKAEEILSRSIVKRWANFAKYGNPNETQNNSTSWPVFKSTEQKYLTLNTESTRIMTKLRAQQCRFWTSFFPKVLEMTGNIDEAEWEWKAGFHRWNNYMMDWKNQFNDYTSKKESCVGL

**Q.** What does the source list for CCN(CC)C(=O)n1cnc(C2(CC)Cc3ccccc3C2)c1 [Compound 8, N,N-Diethyl-4-(2-ethylindan-2-yl)-1H-imidazole-1-carboxamide]?
**A.** IC50 (hBChE; after 5 min preincubation, read-out: hBChE IC50±SD): 1520 ± 90 nM; hBChE time-dependency observed: Yes/No (hBChE; pre-incubation time varied): Yes; spontaneous alternation in the Y maze task [1]: increased spontaneous alternation; tau hyperphosphorylation in whole brain homogenates (tau): significantly lowered tau hyperphosphorylation
